What all share (type): cell-based
Assay [1] deals with T1, GLP-1R (Homo sapiens, UniProt P43220). In words: PathHunter β-arrestin assay. The method, boiled down: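 Agonist concentration–response (22 points, 2-fold steps, duplicates) was run on cells plated the previous day in BSA-supplemented (0.2%) medium. Stimulation lasted 90 min at 37 °C, followed by a 3 h dark incubation with detection reagent at room temperature and a luminescence read.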

The target of assay [2] is T1, GLP-1R. In words: HitHunter cAMP assay (GLP-1R). The settings on record: cAMP; for Emax: read-out: (Emax) GLP-1R. Put shortly:
(§1)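 Cells were resuspended in HBSS plus HEPES, IBMX (625 μM) and BSA, then dispensed with antibody at 10,000 per well. Agonists followed as 22-point twofold series, 30 min at room temperature. Antibody reagent and detection steps ran 1 h and overnight in the dark before luminescence.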

The target of assay [3] is T2, GIP-R (Homo sapiens, UniProt P48546).
T2 sequence (P48546 22-466): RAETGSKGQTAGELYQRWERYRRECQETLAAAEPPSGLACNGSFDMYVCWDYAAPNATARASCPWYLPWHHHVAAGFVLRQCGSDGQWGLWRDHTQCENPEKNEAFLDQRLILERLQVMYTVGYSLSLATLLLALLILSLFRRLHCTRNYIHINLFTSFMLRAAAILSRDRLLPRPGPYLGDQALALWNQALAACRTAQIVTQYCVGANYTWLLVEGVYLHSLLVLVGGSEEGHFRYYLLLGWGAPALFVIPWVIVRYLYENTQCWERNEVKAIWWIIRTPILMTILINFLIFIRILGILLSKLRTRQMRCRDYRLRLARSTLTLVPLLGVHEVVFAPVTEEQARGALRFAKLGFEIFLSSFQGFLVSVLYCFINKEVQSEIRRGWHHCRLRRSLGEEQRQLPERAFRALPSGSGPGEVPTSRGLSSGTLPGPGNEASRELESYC
In words: HitHunter cAMP assay (GIP-R). The method, boiled down:
as §1
On the technique in general: Cyclic AMP is a second messenger, typically raised through Gs and lowered through Gi signalling.

[4] abbreviates: Table 3; cAMP; read-out: (Emax) GIP-R.
Where [5] appears, read: Table 3A; cAMP; read-out: (Emax) GIP-R.
Where [6] appears, read: read-out: EC50 GIP-R/nM; Table 3; cAMP.
Where [7] appears, read: read-out: EC50 GIP-R/nM; Table 3A; cAMP.
Setting [8] is: PathHunter β-arrestin assay, read-out: β-arrestin activity EC50.
[9] abbreviates: Table 3, read-out: EC50 GLP-1R/nM.
[10] abbreviates: Table 3A, read-out: EC50 GLP-1R/nM.
Setting [11] is: Table 3; cAMP; read-out: EC50 GIP-R/nM.
The mark [12] stands for this setting: Table 3A; cAMP; read-out: EC50 GIP-R/nM.

pEC50: −log10 of the molar value. Read-outs that look alike come from different tables or passages of the source. Numbered stars: 1 amine (or outer) side, 2 acyl side, 3 side chain; on linkers, the order of the positions; unused ones are H or OH. Square brackets hold non-standard residues; d marks the D form. Side chains are listed from the residue outwards. Peptide text beside a SMILES is read from it. * marks the point of attachment. X1 = O=C(CSCC(=O)*)NCCN1C(=O)c2ccccc2C1=O; γGlu = O=C(O)[C@H](CCC(=O)[*:2])N[*:1]; X2 = O=C(CSCC(=O)*)NCCN1C(=O)CSC1=O; Palmitoyl = CCCCCCCCCCCCCCCC(=O)*; Aib = CC(C)(N)C(=O)O

T1 sequence (P43220 24-463): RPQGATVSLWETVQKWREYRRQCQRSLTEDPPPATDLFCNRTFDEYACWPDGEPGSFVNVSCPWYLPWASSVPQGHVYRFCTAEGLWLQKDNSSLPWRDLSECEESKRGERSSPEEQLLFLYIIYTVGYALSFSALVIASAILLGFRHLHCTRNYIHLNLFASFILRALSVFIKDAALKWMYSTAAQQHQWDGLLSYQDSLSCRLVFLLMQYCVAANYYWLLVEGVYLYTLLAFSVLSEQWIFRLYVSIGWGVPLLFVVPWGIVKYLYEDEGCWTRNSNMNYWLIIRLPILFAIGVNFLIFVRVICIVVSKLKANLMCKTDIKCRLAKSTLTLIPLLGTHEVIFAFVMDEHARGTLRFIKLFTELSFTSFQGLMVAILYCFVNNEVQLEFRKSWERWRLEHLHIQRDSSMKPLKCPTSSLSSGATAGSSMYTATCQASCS

`CC[C@H](C)[C@H](NC(=O)[C@H](CO)NC(=O)[C@H](Cc1ccc(O)cc1)NC(=O)[C@H](CC(=O)O)NC(=O)[C@H](CO)NC(=O)[C@@H](NC(=O)[C@H](Cc1ccccc1)NC(=O)[C@@H](NC(=O)CNC(=O)[C@H](CCC(=O)O)NC(=O)CSCC(=O)NCCN1C(=O)c2ccccc2C1=O)[C@@H](C)O)[C@@H](C)O)C(=O)N[C@@H](Cc1ccc(O)cc1)C(=O)N[C@@H](CC(C)C)C(=O)N[C@@H](CC(=O)O)C(=O)N[C@@H](CCCCN)C(=O)N[C@@H](CCC(N)=O)C(=O)N[C@@H](C)C(=O)N[C@@H](C)C(=O)NC(C)(C)C(=O)N[C@@H](CC(C)C)C(=O)N[C@@H](Cc1ccccc1)C(=O)N[C@H](C(=O)N[C@@H](CC(N)=O)C(=O)N[C@@H](Cc1c[nH]c2ccccc12)C(=O)N[C@@H](CC(C)C)C(=O)N[C@@H](CC(C)C)C(=O)N[C@@H](C)C(=O)NCC(=O)NCC(=O)N1CCC[C@H]1C(=O)N[C@@H](CO)C(=O)N[C@@H](CO)C(=O)NCC(=O)N[C@@H](C)C(=O)N1CCC[C@H]1C(=O)N1CCC[C@H]1C(=O)N1CCC[C@H]1C(=O)N[C@@H](CO)C(=O)N[C@@H](CCCCN)C(N)=O)C(C)C` [Compound 145] (X1-EGTFTSDYSIYLDKQAA[Aib]LFVNWLLAGGPSSGAPPPSK-NH2): the pEC50 (usually the EC50 on a negative log10 scale, so that one unit is a factor of ten) in assay [1] is below 6.00. In addition, the EC50 in assay [2] (EC50 GLP-1R/nM, Table 3) is 1 to 10 nM; in assay [2] (EC50 GLP-1R/nM, Table 3A) it was 1 to 10 nM; in assay [3] (setting [6]), below 1 nM; in assay [3] (setting [7]), below 1 nM. Besides, the maximal effect (Emax) – broadly, the size of the effect at its maximum, as opposed to the concentration needed – in assay [2] (Table 3) was 100 to 104%; in assay [2] (Table 3A), 100 to 104%; in assay [3] (setting [4]) it was 125%; in assay [3] (setting [5]) it was 125%.

In the case of `CCCCCCCCCCCCCCCC(=O)N[C@@H](CCC(=O)NCCCC[C@H](NC(=O)[C@H](CO)NC(=O)[C@@H]1CCCN1C(=O)[C@@H]1CCCN1C(=O)[C@@H]1CCCN1C(=O)[C@H](C)NC(=O)CNC(=O)[C@H](CO)NC(=O)[C@H](CO)NC(=O)[C@@H]1CCCN1C(=O)CNC(=O)CNC(=O)[C@H](C)NC(=O)[C@H](CC(C)C)NC(=O)[C@H](CC(C)C)NC(=O)[C@H](Cc1c[nH]c2ccccc12)NC(=O)[C@H](CC(N)=O)NC(=O)[C@@H](NC(=O)[C@H](Cc1ccccc1)NC(=O)[C@H](CCC(=O)O)NC(=O)C(C)(C)NC(=O)[C@H](C)NC(=O)[C@H](C)NC(=O)[C@H](CCC(N)=O)NC(=O)[C@H](CCCCN)NC(=O)[C@H](CC(=O)O)NC(=O)[C@H](CCSC)NC(=O)[C@H](CCC(N)=O)NC(=O)[C@@H](NC(=O)[C@H](CO)NC(=O)[C@H](Cc1ccc(O)cc1)NC(=O)[C@H](CC(=O)O)NC(=O)[C@H](CO)NC(=O)[C@@H](NC(=O)[C@H](Cc1ccccc1)NC(=O)[C@@H](NC(=O)CNC(=O)[C@H](CCC(=O)O)NC(=O)CSCC(=O)NCCN1C(=O)CSC1=O)[C@@H](C)O)[C@@H](C)O)[C@@H](C)CC)C(C)C)C(N)=O)C(=O)O` [Compound 72] (X2-EGTFTSDYSIQMDKQAA[Aib]EFVNWLLAGGPSSGAPPPSK([γGlu-Palmitoyl])-NH2), the pEC50 in assay [1] (setting [8]) is below 6.00. The Emax in assay [2] (Table 3) is 105%; in assay [2] (Table 3A), 105%; in assay [3] (setting [4]) it was 87%; in assay [3] (setting [5]), 87%. Further, the EC50 in assay [2] (setting [9]), in assay [2] (setting [10]), in assay [3] (setting [11]) and in assay [3] (setting [12]) was 0.1 to 1 nM each time.

As for `CCCCCCCCCCCCCCCC(=O)N[C@@H](CCC(=O)NCCCC[C@H](NC(=O)[C@H](CO)NC(=O)[C@@H]1CCCN1C(=O)[C@@H]1CCCN1C(=O)[C@@H]1CCCN1C(=O)[C@H](C)NC(=O)CNC(=O)[C@H](CO)NC(=O)[C@H](CO)NC(=O)[C@@H]1CCCN1C(=O)CNC(=O)CNC(=O)[C@H](C)NC(=O)[C@H](CC(C)C)NC(=O)[C@H](CC(C)C)NC(=O)[C@H](Cc1c[nH]c2ccccc12)NC(=O)[C@H](CC(N)=O)NC(=O)[C@@H](NC(=O)[C@H](Cc1ccccc1)NC(=O)[C@H](CCC(=O)O)NC(=O)C(C)(C)NC(=O)[C@H](C)NC(=O)[C@H](C)NC(=O)[C@H](CCC(N)=O)NC(=O)[C@H](CCCCN)NC(=O)[C@H](CC(=O)O)NC(=O)[C@H](CC(C)C)NC(=O)[C@H](Cc1ccc(O)cc1)NC(=O)[C@@H](NC(=O)[C@H](CO)NC(=O)[C@H](Cc1ccc(O)cc1)NC(=O)[C@H](CC(=O)O)NC(=O)[C@H](CO)NC(=O)[C@@H](NC(=O)[C@H](Cc1ccccc1)NC(=O)[C@@H](NC(=O)CNC(=O)[C@H](CCC(=O)O)NC(=O)CSCC(=O)NCCN1CCN(C)C(=O)C1)[C@@H](C)O)[C@@H](C)O)[C@@H](C)CC)C(C)C)C(N)=O)C(=O)O` [Compound 38], the pEC50 in assay [1] (setting [8]) is below 6.00. The Emax in assay [2] (Table 3) fell in the range of 97 to 104%; in assay [2] (Table 3A), 97 to 104%; in assay [3] (setting [4]), 18 to 43%; in assay [3] (setting [5]) it was 18 to 43%. Also, the EC50 in assay [2] (setting [9]) was 0.1 to 1 nM; in assay [2] (setting [10]), 0.1 to 1 nM; in assay [3] (setting [11]), 1 to 10 nM; in assay [3] (setting [12]), 1 to 1000 nM.

As for `CC[C@H](C)[C@H](NC(=O)[C@H](CO)NC(=O)[C@H](Cc1ccc(O)cc1)NC(=O)[C@H](CC(=O)O)NC(=O)[C@H](CO)NC(=O)[C@@H](NC(=O)[C@H](Cc1ccccc1)NC(=O)[C@@H](NC(=O)CNC(=O)[C@H](CCC(=O)O)NC(=O)CSCC(=O)NCCn1ccccc1=O)[C@@H](C)O)[C@@H](C)O)C(=O)N[C@@H](Cc1ccc(O)cc1)C(=O)N[C@@H](CC(C)C)C(=O)N[C@@H](CC(=O)O)C(=O)N[C@@H](CCCCN)C(=O)N[C@@H](CCC(N)=O)C(=O)N[C@@H](C)C(=O)N[C@@H](C)C(=O)NC(C)(C)C(=O)N[C@@H](CCC(=O)O)C(=O)N[C@@H](Cc1ccccc1)C(=O)N[C@H](C(=O)N[C@@H](CC(N)=O)C(=O)N[C@@H](Cc1c[nH]c2ccccc12)C(=O)N[C@@H](CC(C)C)C(=O)N[C@@H](CC(C)C)C(=O)N[C@@H](C)C(=O)NCC(=O)NCC(=O)N1CCC[C@H]1C(=O)N[C@@H](CO)C(=O)N[C@@H](CO)C(=O)NCC(=O)N[C@@H](C)C(=O)N1CCC[C@H]1C(=O)N1CCC[C@H]1C(=O)N1CCC[C@H]1C(=O)N[C@@H](CO)C(=O)N[C@@H](CCCCN)C(N)=O)C(C)C` [Compound 139], the pEC50 in assay [1] (setting [8]) was below 6.00. Moreover, the Emax is 102% in assay [2] (Table 3), 102% in assay [2] (Table 3A), 79% in assay [3] (setting [4]) and 79% in assay [3] (setting [5]). The EC50 is 0.1 to 1 nM in assay [2] (setting [9]), 0.1 to 1 nM in assay [2] (setting [10]), 1 to 10 nM in assay [3] (setting [11]) and 1 to 10 nM in assay [3] (setting [12]).

`CC[C@H](C)[C@H](NC(=O)[C@H](CO)NC(=O)[C@H](Cc1ccc(O)cc1)NC(=O)[C@H](CC(=O)O)NC(=O)[C@H](CO)NC(=O)[C@@H](NC(=O)[C@H](Cc1ccccc1)NC(=O)[C@@H](NC(=O)CNC(=O)[C@H](CCC(=O)O)NC(=O)CC(=O)NCCCN1C(=O)CSC1=O)[C@@H](C)O)[C@@H](C)O)C(=O)N[C@@H](Cc1ccc(O)cc1)C(=O)N[C@@H](CC(C)C)C(=O)N[C@@H](CC(=O)O)C(=O)N[C@@H](CCCCN)C(=O)N[C@@H](CCC(N)=O)C(=O)N[C@@H](C)C(=O)N[C@@H](C)C(=O)NC(C)(C)C(=O)N[C@@H](CCC(=O)O)C(=O)N[C@@H](Cc1ccccc1)C(=O)N[C@H](C(=O)N[C@@H](CC(N)=O)C(=O)N[C@@H](Cc1c[nH]c2ccccc12)C(=O)N[C@@H](CC(C)C)C(=O)N[C@@H](CC(C)C)C(=O)N[C@@H](C)C(=O)NCC(=O)NCC(=O)N1CCC[C@H]1C(=O)N[C@@H](CO)C(=O)N[C@@H](CO)C(=O)NCC(=O)N[C@@H](C)C(=O)N1CCC[C@H]1C(=O)N1CCC[C@H]1C(=O)N1CCC[C@H]1C(=O)N[C@@H](CO)C(=O)N[C@@H](CCCCN)C(N)=O)C(C)C` [Compound 166] gave a pEC50 in assay [1] below 6.00. Moreover, the EC50 in assay [2] (EC50 GLP-1R/nM, Table 3) is below 0.1 nM; in assay [2] (EC50 GLP-1R/nM, Table 3A), below 0.1 nM; in assay [3] (setting [6]), 1 to 100 nM; in assay [3] (setting [7]), 1 to 100 nM. The Emax in assay [2] (Table 3) was 109%; in assay [2] (Table 3A), 109%; in assay [3] (setting [4]) it was 77 to 84%; in assay [3] (setting [5]), 77 to 84%.

Values taken from US20260176320A1, “MODULATORS OF G-PROTEIN COUPLED RECEPTORS” (priority 2018, published 2026).
